Reference: patent US8921108B2, “Differentiated human liver cell cultures and their use in bioartificial liver systems” (Academisch Ziekenhuis Bij de Universiteit van Amsterdam, priority 2009, dated 2014)
Where “and” joins values, the source holds several entries; their conditions need not be identical. Equal entries are not always repeated.

Assays:
HepaRG cells [1] = test: 15N urea enrichment (conversion of ammonia into urea) in HepaRG monolayer cultures; assay type: cell-based, human; settings: HepaRG monolayer +DMSO, no CG
Procedure: (§1) For testing, the cells are seeded in 6-well and 24-well culture plates (Corning) in HepaRG media with different FBS batches or other differences in medium composition. After a 2 weeks proliferation phase, 2% of DMSO will be added to half of the cultures. After another 2 weeks of culturing, the confluence and morphology of the cultures will be assessed microscopically. Furthermore the +DMSO and −DMSO cell cultures in the 24-well plates will be tested for biochemical activity, i.e. urea production, ammonia elimination and protein content. The cultured cells are washed twice using phosphate buffered saline (PBS, NBPI International) and then incubated with test medium consisting of HepaRG culture medium supplemented with 1.5 mM ^15NH4Cl (Sigma), 2.75 mM D-galactose (Sigma), 2 mM ornithine hydrochloride (Sigma) and 2 mM L-lactate (Sigma). Medium samples are taken after 1 hr from the culture wells, as a reference, and after 24 hours. At the end of the test period the cells are washed three times using PBS and stored at −20° C. for protein determination. From the changes in concentration at t=1 hr and 24 hr of urea and ammonia an activity per hour and per mg protein/well is calculated. Quality of the cell-loaded bioreactors, measured by hepatocyte function at the start of the treatment, will be compared with values of primary hepatocytes that have been tested extensively in vitro in the past.
^15N Urea: Single and Double labelled urea is measured in the test medium samples using mass-spectrometry.
(§2) The HepaRG cells are cultured as indicated above in 24 well in presence or absence of 1 mM CG during the last 5 days. Next the cells are tested as indicated above in presence or absence of CG during 24 hours. To determine the conversion of ammonia into urea, the ^15N urea enrichment (single and double labeled) is measured in the test samples using mass-spectrometry. Similarly, HepG2 and cBAL111 cells were tested for their response to CG.

HepaRG cells [2] = test: Total protein content of HepaRG monolayer cultures; assay type: cell-based, human
Procedure: as §1
Total protein: Total protein was quantified by spectrometry using Coomassie blue (Bio-Rad).

HepaRG cells [3] = test: RT-PCR mRNA levels of hepatic genes in HepaRG monolayer cultures; assay type: cell-based, human
Procedure: The HepaRG cells cultured in the 6-well plates are lysed and the RNA is isolated using the RNeasy kit (Qiagen). Next, real-time reverse transcriptase-polymerase chain reactions (RT-PCR) are performed to quantify mRNA levels of hepatic genes as well as 18S ribosomal RNA levels by RT-PCR.
First-strand cDNA is generated using a combination of 40 pmol of gene-specific RT-primers (see Table 1) and 134 units of Superscript III (Invitrogen) and 1 μg RNA in a total volume of 25 μl at 50° C. for one hour followed by a 15 min incubation at 70° C. The resulting gene-specific RT reaction mixtures are column purified using Qiaquick PCR Purification Kit (Qiagen).
Real-time PCR is performed using 1 μl of cDNA and LightCycler FastStart DNA Master SYBR® Green 1 reagent (Roche). PCR primers are depicted in the Table 3. The thermal cycling profile of the touchdown PCR is as follows: 94° C. for 10 min, followed by 40 cycles of 94° C. for 1 s, primer annealing at 68° C. for 7 s with a 0.5° C./cycle decrease until 63° C., and extension for 40 s at 72° C. PCR specificity is verified by melting curve analysis and agarose gel electrophoresis. The mRNA quantification is carried out by using the LinRegPCR programme (Ramakers et al.^17). For each sample the mRNA starting level is normalised for the 18S rRNA starting level. To correct for variations between RT-PCR runs, the mRNA starting levels of liver specific genes of NKNT-3 cells are additionally standardized for average mRNA starting levels of two liver samples that are simultaneously subjected to RT-PCR.

HepaRG cells [4] = test: ApoA1 production of HepaRG monolayer cultures (ELISA); assay type: cell-based, human
Procedure: as §1
ApoA1: Human ApoA1 concentrations are determined by ELISA using rabbit anti-human ApoA1 (1:500, Calbiochem, 178422), as first antibody, monoclonal mouse anti human ApoA1 (1:500, Calbiochem, 178472) as second antibody and polyclonal rabbit anti mouse IgG-HRP (1:2000, Dako Po 260) as third antibody.

HepaRG cells [5] = test: Ammonia elimination of HepaRG monolayer cultures; assay type: cell-based, human
Procedure: For testing, the cells are seeded in 6-well and 24-well culture plates (Corning) in HepaRG media with different FBS batches or other differences in medium composition. After a 2 weeks proliferation phase, 2% of DMSO will be added to half of the cultures. After another 2 weeks of culturing, the confluence and morphology of the cultures will be assessed microscopically. Furthermore the +DMSO and −DMSO cell cultures in the 24-well plates will be tested for biochemical activity, i.e. urea production, ammonia elimination and protein content. […] From the changes in concentration at t=1 hr and 24 hr of urea and ammonia an activity per hour and per mg protein/well is calculated. Quality of the cell-loaded bioreactors, measured by hepatocyte function at the start of the treatment, will be compared with values of primary hepatocytes that have been tested extensively in vitro in the past.
Ammonia: Ammonia concentrations are determined by an enzymatic kinetic colorimetric assay using glutamate dehydrogenase and NADPH, using the Ammonia (rapid) kit (Megazyme, Ireland) according to the instructions of the manufacturer.

HepaRG cells [6] = test: AST and LDH leakage of HepaRG monolayer cultures; assay type: cell-based, human; settings: HepaRG monolayer +DMSO
Procedure: as §1
AST and LDH: Both AST and LDH activities are analyzed spectrophotometrically using a P800 Roche Diagnostics analyzer.

HepaRG cells [7] = test: Galactose elimination of HepaRG monolayer cultures; assay type: cell-based, human; settings: HepaRG monolayer +DMSO
Procedure: as §1

HepaRG cells [8] = test: Urea production of HepaRG monolayer cultures; assay type: cell-based, human
Procedure: For testing, the cells are seeded in 6-well and 24-well culture plates (Corning) in HepaRG media with different FBS batches or other differences in medium composition. After a 2 weeks proliferation phase, 2% of DMSO will be added to half of the cultures. After another 2 weeks of culturing, the confluence and morphology of the cultures will be assessed microscopically. Furthermore the +DMSO and −DMSO cell cultures in the 24-well plates will be tested for biochemical activity, i.e. urea production, ammonia elimination and protein content. […] Medium samples are taken after 1 hr from the culture wells, as a reference, and after 24 hours. At the end of the test period the cells are washed three times using PBS and stored at −20° C. for protein determination. From the changes in concentration at t=1 hr and 24 hr of urea and ammonia an activity per hour and per mg protein/well is calculated.
Urea: Urea concentrations of test medium samples are determined using the blood urea nitrogen test of Sigma Chemical Co according to the instructions of the manufacturer.
as §2

HepaRG cells [9] = test: Lactate elimination/consumption of HepaRG monolayer cultures; assay type: cell-based, human
Procedure: as §1, with “At the end of the test period the cells are washed three times using PBS and stored at −20° C. for protein determination.” left out
Lactate and glucose concentration: Both are analyzed using a P800 analyzer (Roche Diagnostics).

Arginase II (Arg II) = target: T1, Arginase II (Arg II) (Homo sapiens, UniProt P78540); settings: C3A cells; cited from earlier work
T1 construct: Arginase II (Arg II) mRNA and protein was expressed at high levels in C3A cells; endogenous in cells; host or cells: C3A cells (HepG2 sub-clone)
T1 sequence (P78540 23-354): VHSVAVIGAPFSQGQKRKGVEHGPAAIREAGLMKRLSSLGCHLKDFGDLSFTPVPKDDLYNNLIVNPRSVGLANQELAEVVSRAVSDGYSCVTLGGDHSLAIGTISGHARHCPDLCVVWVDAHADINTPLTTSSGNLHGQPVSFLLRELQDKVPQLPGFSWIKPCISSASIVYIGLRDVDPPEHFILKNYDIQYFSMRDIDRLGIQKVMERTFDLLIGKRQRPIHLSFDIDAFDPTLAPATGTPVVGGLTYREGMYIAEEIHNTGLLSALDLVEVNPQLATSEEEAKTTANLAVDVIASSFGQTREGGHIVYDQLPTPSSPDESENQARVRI

[10] = HepaRG monolayer, 2% DMSO last 2 weeks, no CG
[11] = HepaRG monolayer, DMSO treatment
[12] = HepaRG monolayer +DMSO, per well

C[S+](C)[O-] [DMSO, dimethylsulfoxide]
15N urea enrichment (HepaRG cells [1]): 15.5 ± 8.4 % of total urea and 16.0 ± 8.4 % of total urea | total protein/well (HepaRG cells [2]; [10]): 109 ± 21 µg | cells killed by DMSO treatment (HepaRG cells [2]; HepaRG monolayer, deduced from total protein/well content and increased cell leakage): more than 50% | effect on cell number (HepaRG cells [2]; presence of DMSO, deduced from total protein content): drastically reduced | ArgII mRNA level (HepaRG cells [3]; HepaRG monolayer +DMSO −CG): 718 ± 463 % of in vivo | ALB mRNA level (HepaRG cells [3]; [10]): 23 ± 4 % of in vivo and 22.7 ± 4.4 % of in vivo | ARG1 mRNA level (HepaRG cells [3]; [10]): 5 ± 4 % of in vivo and 4.6 ± 3.7 % of in vivo | CPS mRNA level (HepaRG cells [3]; [10]): 1.1 ± 0.4 % of in vivo | CYP2B6 mRNA level (HepaRG cells [3]; [10]): 61 ± 30 % of in vivo and 60.7 ± 30.0 % of in vivo | CYP3A4 mRNA level (HepaRG cells [3]; [10]): 69 ± 47 % of in vivo and 68.9 ± 47.2 % of in vivo | GS mRNA level (HepaRG cells [3]; [10]): 90 ± 29 % of in vivo and 90.1 ± 29.1 % of in vivo | HNF4 mRNA level (HepaRG cells [3]; [10]): 61 ± 21 % of in vivo and 60.8 ± 21.1 % of in vivo | PXR mRNA level (HepaRG cells [3]; [10]): 42 ± 19 % of in vivo and 41.7 ± 19.2 % of in vivo | effect on CYP2B6 and 3A4 expression (HepaRG cells [3]; [11]): increased | effect on expression of other hepatic genes tested (HepaRG cells [3]; [11]): either unaffected or decreased | effect on gene expression of synthetic and metabolic genes, as CPS and albumin and galactose elimination (HepaRG cells [3]; presence of DMSO): inhibited | ApoA1 synthesis (HepaRG cells [4]; HepaRG monolayer +DMSO −CG): 1.2 ± 1.1 ug/h/mg protein | ApoA1 production (absolute value) (HepaRG cells [4]; [12]): 0.11 ± 0.11 µg/h | ApoA1 production (HepaRG cells [4]; [10]): 1.06 ± 0.95 μg/h/mg protein | Ammonia elimination (absolute value) (HepaRG cells [5]; [12]): 11.6 ± 4.3 nmol/h | Ammonia elimination (HepaRG cells [5]; [10]): 107 ± 41 nmol/h/mg protein and 110 ± 49 nmol/h/mg protein | AST leakage (protein normalized) (HepaRG cells [6]): 4.9 ± 2.4 mU/h/mg protein | LDH leakage (protein normalized) (HepaRG cells [6]): 21.2 ± 9.4 mU/h/mg protein | AST leakage (absolute value) (HepaRG cells [6]; per well): 0.43 ± 0.08 mU/h | LDH leakage (absolute value) (HepaRG cells [6]; per well): 1.87 ± 0.43 mU/h | Galactose elimination (protein normalized) (HepaRG cells [7]): 58 ± 17 nmol/h/mg protein | Galactose elimination (absolute value) (HepaRG cells [7]; per well): 7.2 ± 1.8 nmol/h | Urea production (absolute value) (HepaRG cells [8]; [12]): 0.8 ± 0.5 nmol/h | Urea production (HepaRG cells [8]; [10]): 8.1 ± 6.8 nmol/h/mg protein and 6.0 ± 4.2 nmol/h/mg protein and 7.0 ± 7.0 nmol/h/mg protein | Lactate consumption (HepaRG cells [9]; HepaRG monolayer +DMSO −CG): production | Lactate elimination (HepaRG cells [9]; [10]): production

N=C(NO)NCC[C@H](N)C(=O)O [N^ω-hydroxy-nor-L-arginine]
effect on Arginase II (Arginase II (Arg II)): inhibited | effect on urea production (Arginase II (Arg II)): prevented
